Reference: paper PMC5655031, “A Linear 19-Mer Plant Defensin-Derived Peptide Acts Synergistically with Caspofungin against Candida albicans Biofilms” (Frontiers in Microbiology, 2017)
Read-outs that look alike come from different tables or passages of the source. Numbered stars: 1 amine (or outer) side, 2 acyl side, 3 side chain; on linkers, the order of the positions; unused ones are H or OH. Bridge positions count the residues as written; N and C are the ends. Square brackets hold non-standard residues; d marks the D form. Ends that are not written are not given here. Peptide text beside a SMILES is read from it. * marks the point of attachment. hTyr(3S-OH,4S-OH,3'-OSO3H) = N[C@H](C(=O)O)[C@H](O)[C@@H](O)c1ccc(O)c(OS(=O)(=O)O)c1; pTerphenylCO(4''-OnC5H11) = CCCCCOc1ccc(-c2ccc(-c3ccc(C(=O)*)cc3)cc2)cc1; Orn(4R-OH,5R-OH) = O=C([C@H](C[C@@H](O)[C@@H](O)N[*:3])N[*:1])[*:2]; hTyr(3S-OH,4S-OH) = N[C@H](C(=O)O)[C@H](O)[C@@H](O)c1ccc(O)cc1; Pro(3S-OH,4S-Me) = C[C@H]1CN[C@H](C(=O)O)[C@H]1O; X1 = CCCCCOc1ccc(-c2cc(-c3ccc(C(=O)*)cc3)no2)cc1; Gln(3R-OH) = NC(=O)C[C@@H](O)[C@H](N)C(=O)O; Hyp = O=C(O)[C@@H]1C[C@@H](O)CN1; Abu = CC[C@H](N)C(=O)O

Columns and labels:
[1] = system: Candida albicans biofilms; test: microbe, parasite or virus in culture
[2] = system: C. albicans SC5314 WT planktonic cells; test: Fungicidal activity assay (plating, CFU) on planktonic cells; assay type: cell-based, Candida albicans; details: caspofungin alone, concentrations up to 50 μM, one representative experiment out of 2
Protocol: […] Both at the start and at all measuring points, surviving yeast cells was determined via plating assays. In a plating assay, 10-fold dilution series of yeast cells in PBS were prepared, after which 100 μL was plated on YPD plates. After 1 day of incubation at 37°C, the number of colony forming units (CFU) was counted and cell death was calculated relative to time zero (t0). MFC50 values, indicating the minimum fungicidal concentration resulting in 50% cell death, were determined. In parallel with the plating assay, confocal microscopic or flow cytometric analysis were performed on the samples.

[3] = system: C. albicans caspofungin-resistant mutant M177 (fks1 mutant) biofilms; test: microbe, parasite or virus in culture; details: Candida albicans, read-out: BIC50 (CASPO) ± SEM
[4] = system: Candida glabrata biofilms; test: In vitro biofilm inhibition assay in microtiter plates (XTT quantification); assay type: cell-based; details: Nakaseomyces glabratus, caspofungin alone, n = 3, read-out: BIC50 (CASPO) ± SEM
[5] = system: planktonic Candida albicans fks1 mutant cells; test: Flow cytometry: HsLin06_18-FITC uptake and membrane permeabilization (PI), fks1 mutant; assay type: cell-based; details: caspofungin (0.5 μM) alone; 40 minutes; n = 3
Protocol: (§1) Membrane permeabilization and HsLin06_18 internalization were determined via flow cytometric analysis on planktonic C. albicans SC5314 WT cells. Exponentially growing cells were exposed to caspofungin ([…]), HsLin06_18-FITC (4.6 μM) or its combination (as described in the material and methods section “fungicidal activity assay”), and to propidium iodide (PI) (2 μg/mL), after which they were subjected to flow cytometry on a BD Influx™ cell sorter. Per treatment, 10,000 cells were monitored for fluorescence at 530/40 nm (FL2_λex = 488 nm) and 610/20 nm (FL11_ λex = 561 nm) for the detection of HsLin06_18-FITC internalization (FITC+) and membrane permeabilization (PI+), respectively. Data from cells treated with 4.6 μM HsLin06_18-FITC were used as background signal.
[picture] Supplementary Figure S3: HsLin06_18-FITC uptake and membrane permeabilization in planktonic Candida albicans WT and fks1 mutant cells, determined via flow cytometry. Cells were treated for 40 minutes with 0.5 µM caspofungin and/or […] HsLin06_18-FITC (HsL-F) and 2 µg/mL propidium iodide (PI). […]

[6] = system: C. albicans biofilms on catheter pieces; test: In vivo biofilm inhibition assay, subcutaneous rat catheter model; details: intravenously (IV) administered, once daily for 7 days; CFU
Protocol: All animal experiments were in accordance with the KU Leuven animal care guidelines and approved by the Ethical Committee of the KU Leuven (P069/2016). In vivo C. albicans biofilms were formed inside catheter pieces in immunosuppressed female Sprague–Dawley rats (200 g) as described previously (Ricicova et al., [2010]). Briefly, serum pre-incubated catheters were infected with C. albicans cells (5 × 10^4 cells/mL) prepared in RPMI medium during the adhesion period (90 min at 37°C). After a washing step, 9 catheter pieces were implanted into the back area of one rat. Inhibition of in vivo C. albicans biofilm formation was initiated immediately after the implant. […] Catheters were explanted from euthanized animals and the number of cells per individual biofilm was determined by CFU (Ricicova et al., [2010]). In vivo experiments were performed once (in total three animals/group).

[7] = system: planktonic C. albicans SC5314 WT cells; test: Flow cytometry: HsLin06_18-FITC uptake and membrane permeabilization (PI); assay type: cell-based, Candida albicans; details: 0.01 μM caspofungin alone; vs t0
Protocol: as §1

[8] = system: Candida albicans biofilms; test: In vitro biofilm inhibition assay in microtiter plates (XTT quantification); assay type: cell-based; details: caspofungin alone, n = 3, read-out: BIC50 (CASPO) ± SEM
[9] = system: C. albicans biofilms on serum pre-incubated polyurethane catheters; test: In vitro biofilm inhibition assay on catheters; assay type: cell-based, Candida albicans; details: 24 h treatment; CFU
Protocol: Polyurethane catheters, overnight incubated in bovine serum, were infected with C. albicans or C. glabrata cells (5 × 10^4 cells/mL) in RPMI medium (Kucharikova et al., [2015]). […] All experiments were performed in quadruplicate with at least three biological repeats.

[10] = system: Candida dubliniensis biofilms; test: In vitro biofilm inhibition assay in microtiter plates (XTT quantification); assay type: cell-based; details: caspofungin alone, n = 3, read-out: BIC50 (CASPO) ± SEM
[11] = system: Candida krusei biofilms; test: as above; assay type: cell-based; details: Pichia kudriavzevii, caspofungin alone, n = 3, read-out: BIC50 (CASPO) ± SEM
[12] = HsLin06_18 cytotoxicity assay (MTT); assay type: cell-based; details: human, 24 h treatment, relative to 1% DMSO control, read-out: EC50 (half maximal effective concentration), cytotoxicity
Protocol: Drug cytotoxicity testing was performed as described previously (Vriens et al., [2015b]). Briefly, human hepatoma (HepG2) cells were treated for 24 h with caspofungin, HsLin06_18, its combination or control treatment (1% DMSO). Cell viability was determined by MTT staining (Roche Diagnostics, Germany) and expressed relative to the control treatment. All experiments were performed in quadruplicate with at least three biological repeats.

[13] = system: C. albicans caspofungin-resistant mutant M177 (fks1 mutant) biofilms; details: fks1 mut
[14] = system: Candida albicans biofilms; details: Caspofungin + HsLin; microtiter plate; means for n ≥ 2
[15] = system: candidiasis; details: administered systemically at 7 or 14 mg/kg/day; ref Tavares et al., 2008; cited from earlier work
[16] = read-out: BIC50 (echinocandin) ± SEM

CCCCCOc1ccc(-c2ccc(-c3ccc(C(=O)N[C@H]4C[C@@H](O)[C@@H](O)NC(=O)[C@@H]5[C@@H](O)[C@@H](C)CN5C(=O)[C@H]([C@@H](C)O)NC(=O)[C@H]([C@H](O)[C@@H](O)c5ccc(O)cc5)NC(=O)[C@@H]5C[C@@H](O)CN5C(=O)[C@H]([C@@H](C)O)NC4=O)cc3)cc2)cc1 [Anidulafungin] ({pTerphenylCO(4''-OnC5H11)}-[Orn(4R-OH,5R-OH)]T[Hyp][hTyr(3S-OH,4S-OH)]T[Pro(3S-OH,4S-Me)]; lactam 1-C)
IC50 [1, 16]: 930 ± 120 nM

CC[C@H](C)C[C@H](C)CCCCCCCCC(=O)N[C@H]1C[C@@H](O)[C@@H](NCCN)NC(=O)[C@@H]2[C@@H](O)CCN2C(=O)[C@H]([C@H](O)CCN)NC(=O)[C@H]([C@H](O)[C@@H](O)c2ccc(O)cc2)NC(=O)[C@@H]2C[C@@H](O)CN2C(=O)[C@H]([C@@H](C)O)NC1=O [Caspofungin]
cell death [2]: 30%
IC50 [3]: 7400 ± 1360 nM
IC50 [4]: 1000 ± 115 nM
cells with permeabilized membranes [5]: < 0.2%
sub-lethal dose in the subcutaneous rat catheter model [6]: 0.25 mg/kg/day
population of cells with compromised membranes [7]: not significantly increased after 40 min
IC50 [8]: 700 ± 92 nM
sub-lethal dose in the in vitro catheter setup [9]: 0.4 µM
IC50 [10]: 920 ± 17 nM
IC50 [11]: 1090 ± 12 nM
IC50 ([1]; read-out: BIC50 (CASPO) ± SEM): 830 ± 96 nM
IC50 [1, 16]: 960 ± 40 nM

CC[C@H](NC(=O)[C@H](C)NC(=O)CNC(=O)CNC(=O)[C@H](Cc1ccc(O)cc1)NC(=O)[C@H](C)NC(=O)[C@@H](N)Cc1ccccc1)C(=O)N[C@@H](Cc1c[nH]cn1)C(=O)N[C@@H](Cc1ccc(O)cc1)C(=O)N[C@@H](CCC(N)=O)C(=O)N[C@@H](Cc1ccccc1)C(=O)N1CCC[C@H]1C(=O)N[C@@H](CO)C(=O)N[C@H](C(=O)N[C@@H](CCCCN)C(=O)N[C@@H](CC)C(=O)N[C@@H](Cc1ccccc1)C(=O)N[C@@H](CC)C(=O)N[C@@H](CCCCN)C(=O)O)C(C)C [HsLin06_18] (H-FAYGGA[Abu]HYQFPSVK[Abu]F[Abu]K-OH)
EC50 at 24 h [12]: > 50000 nM
FICI ([13]; caspofungin + 2.5 µM HsLin06_18): < 0.5
FICI ([13]; caspofungin + 5 µM HsLin06_18): < 0.5

CCCCCOc1ccc(-c2cc(-c3ccc(C(=O)N[C@H]4C[C@@H](O)[C@@H](O)NC(=O)[C@@H]5[C@@H](O)[C@@H](C)CN5C(=O)[C@H]([C@H](O)CC(N)=O)NC(=O)[C@H]([C@H](O)[C@@H](O)c5ccc(O)c(OS(=O)(=O)O)c5)NC(=O)[C@@H]5C[C@@H](O)CN5C(=O)[C@H]([C@@H](C)O)NC4=O)cc3)no2)cc1 [Micafungin] (X1-[Orn(4R-OH,5R-OH)]T[Hyp][hTyr(3S-OH,4S-OH,3'-OSO3H)][Gln(3R-OH)][Pro(3S-OH,4S-Me)]; lactam 1-C)
IC50 [1, 16]: 400 ± 88 nM

FAYGGACHYQFPSVKCFXK (disulfide) [HsLin06_18_22]
Fold change (reduction of the BIC50 of caspofungin by co-incubation with HsLin06_18 or HsLin06_18-variants) [14]: 1.77

FAYGGACHYQFPSVKXFCK (disulfide) [HsLin06_18_20]
Fold change (reduction of the BIC50 of caspofungin by co-incubation with HsLin06_18 or HsLin06_18-variants) [14]: 1.97

RsAFP2: plant defensin (QKLCQRPSGTWSGVCGNNNACKNQCIRLEKARHGSCNYVFPAHKCICYFPC; ends and bridges not checked; cysteine pairing not given here; UniProt P30230 30-80, looked up)
in vivo efficacy against candidiasis [15]: prophylactically effective
